Test results from the NIST ThermoML archive (doi:10.1021/je400473z).

Test: wn = mass fraction of the nth substance listed
Details: 101 kPa, Liquid, Vibrating tube method

CC#N [acetonitrile] + O
mass density [kg/m3]
Details | 293.15 K | 303.15 K | 313.15 K
w1 = 0.1 | 983.2 | 978.7 | 973.5
w1 = 0.2 | 964.2 | 958.2 | 951.6
w1 = 0.4 | 918.7 | 910.9 | 902.8
